Reference: US20190151304A1, “METHODS AND PHARMACEUTICAL COMPOSITIONS FOR THE TREATMENT OF AUTOIMMUNE INFLAMMATORY” (INSERM (INSTITUT NATIONAL DE LA SANTÉ ET DE LA RECHERCJAE …, priority 2016, published 2019)
No end group written: not given here.

How the values were obtained:
[1] = system: cytokines secretion in colon extracts; test: Cytokine assays in colon extracts of DSS-induced colitis mice; assay type: in vivo; details: OxA treatment
Experimental: FIG. 3: OXA effects on cytokines secretion in DSS-induced colitis mice. Right, Colons of DSS untreated mice (white), DSS treated mice (gray) and DSS treated mice associated to OxA treatment (black) were resected after animal sacrifice. Then, protein extraction was performed by tissue disruption. Cytokines were determined using Cytokine CBA kits (see Material and Methods). Left, after colon resection, RNA were extracted from colonic tissue and qPCR was performed using specific oligonucleotides for IL8 homolog and IL1B.
These observations are confirmed by histologic aspect of colon epithelium (histologic scoring by a GI pathologist). Thus, OxA has probably an anti-inflammatory effect on DSS-induced colitis. To confirm this hypothesis, we have investigated the anti-inflammatory effect of OxA treatment on cytokines secretion in colon extracts from DSS-treated mice. […] In contrast, OxA has no effect on INFγ, IL10, and IL12 cytokine secretion in colon extracts (FIG. 3).
Cytokine assays: Mice were sacrificed and colons were resected. Proteins were extracted from colon by tissue disruption in PBS using Tissue Lyser (Qiagen, Courtaboeuf, France). Various cytokines (see FIG. 3) were determined using Cytokine CBA kits (BD Sciences, Le Pont de Claix, France).

HEK-OX1R cells = test: Cells growth determination, HEK-OX1R cells; assay type: cell-based; details: 48 hr; OxA 0.1 μM, SB408124 increasing concentrations
Experimental: (§1) FIG. 12: Determination of the inhibition of cellular growth of HEK-OX1R cells and colon adenocarcinoma cells (HT-29) induced by 0.1 μM of OxA or various concentrations of SB408124 antagonist. HEK-OX1R cells (black column) and HT-29 cells (white column) were incubated with 0.1 μM of OxA and indicated increasing concentration of SB408124, and cells were counted after 48 hr incubation. Results are expressed as the percentage of total viable cells.
(§2) Cells growth determination and apoptosis assay: HEK-OX1R cells or colon adenocarcinoma HT-29 cells were seeded, grown and maintained at 37° C. in a humidified 5% CO2/air incubator. After 24 hr culture, cells were treated with or without Orexin-A peptide or SB408124 antagonist, previously dissolved in DMSO, to be tested at the concentration indicated in the figure legends. After 48 hr of treatment, adherent cells were harvested by Trip1E (Life Technologies, Saint Aubin, France) and manually counted. Apoptosis was determined using the Guava PCA system and the Guava nexin kit.

EAE mice = test: Chronic experimental autoimmune encephalomyelitis (EAE) induced with MOG35-55; assay type: in vivo, C57BL/6 mice; details: for Histopathological EAE score (spinal cord): 30 days post-immunization; for Regulatory T cell (Treg) proportion in draining lymph nodes: day 30 post-immunization, flow cytometry, versus PBS controls; for Clinical features of EAE (clinical score 0-5): orexin A 100 or 300 μg per mouse for 5 days, IP or retro-orbital, before onset or at moderate EAE score
Experimental: EAE was induced with 100 μg of MOG35-55 (Myelin Oligodendrocyte Glycoprotein 35-55) as previously described (Proc Natl Acad Sci USA. 106(6):2012-7, 2009) to 9 week old female C57BL/6 wild-type (WT) mice (n=10/group). Panels show clinical signs of EAE scored daily in a blinded fashion for over 30 days on a scale of 0-5 as follows: 0, no detectable clinical signs, 1, waddling gait with limp tail, 2, ataxia with full paralysis of one limb, 3, full paralysis of two limbs, 4, full paralysis of two limbs with important weight loss (>20% of initial weight) and 5, moribund or dead. Then, mice were given:
Panel A, intraperitoneally (IP) either PBS (group PBS IP), 100 μg of orexin A per mouse for 5 days on day 3 (=before the onset, group BOxA100 IP) or at a moderate EAE score (=1,5-2 for group OxA100 IP).
Panel B, intraperitoneally either PBS (group PBS), 100 μg (group OxA100 IP) or 300 μg (group OxA300 IP) of orexin A per mouse for 5 days at a moderate EAE score (=1,5-2).
Panel C, either PBS (group PBS), 300 μg of orexin A per mouse intraperitoneally (group OxA300 IP) or retro-orbitally (RO) (group OxA300 RO) for 5 days at a moderate EAE score (=1,5-2).
The EAE score is shown as mean+/−SEM. *P<0.05 (nonparametric t-test, compared to PBS group).
FIG. 5. […] 30 days post-immunization, mice (from the PBS, OxA300 RO, and OxA300 IP groups of FIG. 2, panel C) were sacrificed and spinal cords were harvested, fixed overnight in 4% paraformaldehyde and stored in 70% ethanol. Spinal cords were then embedded in paraffin and cut in […] section. After haematoxylin/eosin (to distinguish cell infiltration) and luxol fast blue (to label myelin) staining, photography was performed at ×1,25 and ×10 magnifications for the spinal cord sections of PBS, OxA300 RO and OxA300 IP mice. […] Histopathology grading was as follows: 0—normal appearance, 1—some infiltrated cells and low demyelination, 2—2 or 3 infiltrated areas and low demyelination, 3—numerous infiltrated areas and strong demyelination, 4—important cell infiltration throughout the tissue with strong demyelination. *P<0.05 (nonparametric t-test, compared to PBS group).
FIG. 6. […] It was determined 30 days after EAE induction of PBS, OxA300 RO, and OxA300 IP mice (from FIG. 2, panel C) by real time RT-qPCR as previously described (Proc Natl Acad Sci USA. 106(6):2012-7, 2009). *P<0.05 (nonparametric t-test, compared to PBS group).
FIG. 7. […] On day 30 post-immunization, draining lymph nodes were harvested from the naïve, PBS, OxA300 RO, and OxA300 IP groups (FIG. 2, panel C). Assessment by flow cytometry was performed by using the mouse regulatory T cell staining kit: lymph node Tregs were defined as […] and proliferative Tregs as CD4^+CD25^+Foxp3^+Ki67^+ cells.
Histograms represent the mean of the percentage (left) and the total number (right) of Tregs and proliferative Tregs (Ki67^+Tregs) for each group. Bars represent the mean+/−SEM of 5 individual mice. *P<0.05 (non parametric t-test, compared to PBS group).
Therefore, orexin A presents potent intrinsic anti-inflammatory properties, capable of modulating the Th/Treg homeostasis during an auto-immune response as aggressive as in a chronic EAE model.

[2] = system: colon adenocarcinoma HT-29 cells; test: Cells growth determination, HT-29 cells; assay type: cell-based; details: 48 hr; OxA 0.1 μM, SB408124 increasing concentrations
Experimental: as §1, §2

[3] = 30 days after EAE induction, RT-qPCR, OxA 300 μg RO or IP

OxA: neuropeptide, endogenous ligand of OX1R and OX2R, with two disulphide bridges (QPLPDCCRQKTCSCRLYELLHGAGNHAAGILTL; disulfide (positions not given here); ends not checked; also: two disulphide bridges, pairing not given here; UniProt O43612 34-66, looked up)
IL6 secretion in colon extracts [1]: reduces | IL10 secretion in colon extracts [1]: no effect | IL12 secretion in colon extracts [1]: no effect | INFγ secretion in colon extracts [1]: no effect | TNFα secretion in colon extracts [1]: reduces | IL1B in colon extracts ([1]; qPCR per FIG. 3): reduces | IL8 homolog in colon extracts ([1]; qPCR per FIG. 3): reduces | Inhibition of cellular growth of HEK-OX1R cells (HEK-OX1R cells): strong inhibition | Th1-specific (IFNγ) cytokine gene expression in the brain (EAE mice; [3]): efficiently suppresses | Th17-specific (IL-17) cytokine gene expression in the brain (EAE mice; [3]): efficiently suppresses | Histopathological EAE score (spinal cord) (EAE mice; OxA 300 μg RO or IP, listed as Orexin A): significantly decreases | Histopathological EAE score (spinal cord) (EAE mice; OxA 300 μg RO or IP, listed as orexin A): drastic reduction | Regulatory T cell (Treg) proportion in draining lymph nodes (EAE mice; listed as Orexin A): increased | Regulatory T cell (Treg) proportion in draining lymph nodes (EAE mice; listed as orexin A): increase | Clinical features of EAE (clinical score 0-5) (EAE mice; listed as Orexin A): dramatically alleviate | Clinical features of EAE (clinical score 0-5) (EAE mice; listed as orexin A): significantly ameliorated | Th1/Th17 pro-inflammatory responses in the CNS tissues (EAE mice; orexin A treated-mice versus PBS controls): drastic reduction | Inhibition of cellular growth of HT-29 cells [2]: strong inhibition
